The source of these data is PMC6009861, “Development of terphenyl-2-methyloxazol-5(4H)-one derivatives as selective reversible MAGL inhibitors” (Journal of Enzyme Inhibition and Medicinal Chemistry, 2017).

Series [1] addresses T1, MAGL (Homo sapiens, UniProt Q99685).
T1 construct: purchased Cayman Chemical
T1 sequence (Q99685 1-303): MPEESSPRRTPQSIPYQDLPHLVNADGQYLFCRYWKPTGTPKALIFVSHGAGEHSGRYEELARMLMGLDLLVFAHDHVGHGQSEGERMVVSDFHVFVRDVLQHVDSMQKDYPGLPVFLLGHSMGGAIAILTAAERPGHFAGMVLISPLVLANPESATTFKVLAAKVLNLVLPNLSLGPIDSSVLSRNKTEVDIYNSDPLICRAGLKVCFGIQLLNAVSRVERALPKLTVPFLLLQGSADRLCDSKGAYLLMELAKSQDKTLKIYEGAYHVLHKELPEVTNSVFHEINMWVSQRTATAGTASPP
The experiment in a line: MAGL-inhibition assay (4-NPA substrate, absorbance 405 nm). In kind it is biochemical. The note with it: for IC50: human recombinant MAGL, 4-NPA 100 µM, 30 min, RT; for MAGL/FAAH selectivity: ratio of FAAH IC50 to MAGL IC50 (fold). The procedure: Human recombinant MAGL, and 4-nitrophenylacetate substrate (4-NPA) were from Cayman Chemical. The IC50 values for compounds were generated in 96-well microtiter plates. The MAGL reaction was conducted at RT at a final volume of 200 µL in 10 mM Tris buffer, pH 7.2, containing 1 mM EDTA. A total of 150 µL of 4-NPA 133.3 µM (final concentration = 100 µM) was added to 10 µL of DMSO containing the appropriate amount of compound. The reaction was initiated by the addition of 40 µL of MAGL (11 ng/well) in such a way that the assay was linear over 30 min. […] After the reaction had proceeded for 30 min, absorbance values were then measured by using a VictorX3 PerkinElmer instrument at 405 nm. Two reactions were also run: one reaction containing no compounds and the second one containing neither inhibitor nor enzyme. IC50 values were derived from experimental data using the Sigmoidal dose–response fitting of GraphPad Prism software as reported earlier.

Series [2] deals with T2, human FAAH (Homo sapiens, UniProt O00519).
T2 sequence (O00519 1-579): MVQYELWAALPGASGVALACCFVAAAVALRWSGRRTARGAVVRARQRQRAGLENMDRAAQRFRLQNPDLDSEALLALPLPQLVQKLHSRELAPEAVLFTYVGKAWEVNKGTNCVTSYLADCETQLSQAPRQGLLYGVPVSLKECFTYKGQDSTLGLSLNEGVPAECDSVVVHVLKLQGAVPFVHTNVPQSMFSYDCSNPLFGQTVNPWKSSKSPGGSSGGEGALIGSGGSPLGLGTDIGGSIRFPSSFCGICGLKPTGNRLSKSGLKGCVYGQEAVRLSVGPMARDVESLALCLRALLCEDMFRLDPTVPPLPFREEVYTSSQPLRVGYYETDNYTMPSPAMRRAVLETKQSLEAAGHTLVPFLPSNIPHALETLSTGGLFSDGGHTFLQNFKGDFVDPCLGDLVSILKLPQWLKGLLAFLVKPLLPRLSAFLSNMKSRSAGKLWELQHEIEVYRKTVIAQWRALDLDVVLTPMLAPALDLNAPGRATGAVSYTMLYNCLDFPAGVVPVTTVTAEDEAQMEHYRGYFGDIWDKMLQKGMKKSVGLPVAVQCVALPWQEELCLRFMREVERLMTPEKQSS
As to the kind of experiment: FAAH inhibition assay (AMC arachidonoyl amide, fluorescence). Type of series: biochemical. The note with it: AMC arachidonoyl amide 10 µM, 30 min, RT. Here is the method:
The IC50 values for compounds were generated in 96-well microtiter plates. The FAAH reaction was conducted at RT at a final volume of 200 µL in 125 mM Tris buffer, pH 9.0, containing 1 mM EDTA. A total of 150 µL of AMC arachidonoyl amide 13.3 µM (final concentration = 10 µM) was added to 10 µL of DMSO containing the appropriate amount of compound. The reaction was initiated by the addition of 40 µL of FAAH (0.9 µg/well) in such a way that the assay was linear over 30 min. After the reaction had proceeded for 30 min, fluorescence values were then measured by using a VictorX3 PerkinElmer instrument at an excitation wavelength of 340 nm and an emission of 460 nm. Two reactions were also run: one reaction containing no compounds and the second one containing neither inhibitor nor enzyme. IC50 values were derived from experimental data using the Sigmoidal dose − response fitting of GraphPad Prism software as reported earlier. To remove possible false-positive results, for each compound concentration, a blank analysis was carried out, and the final fluorescence results were obtained detracting the fluorescence produced by the presence of all the components except FAAH in the same conditions.

Series [3] deals with T1, MAGL. As to the kind of experiment: MAGL preincubation assay. Type of series: biochemical. The note with it: preincubation 0, 30 and 60 min with hMAGL. The procedure: The MAGL reaction was conducted at RT at a final volume of 200 µL in 10 mM Tris buffer, pH 7.2, containing 1 mM EDTA. A total of 150 µL of MAGL (11 ng/well) was added to 10 µL of DMSO containing the appropriate amount of compound. After 0, 30, and 60 min of incubation time the reaction was initiated by the addition of 40 µL of 4-NPA 500 µM. The enzyme activity was then measured according to the procedure described above.

Series [4] deals with T1, MAGL. The experiment in a line: MAGL dilution assay. In kind it is biochemical. The note with it: 10 µM incubated 60 min, then 40x dilution (final 0.25 µM). The procedure:
The enzyme (880 ng in 75 µL of Tris buffer, pH 7.2) was incubated during 60 min at RT with 5 µL of compound 20b (concentration of 10 µM in the mixture) dissolved in DMSO. The MAGL-inhibitor mixture was then diluted 40-fold with the buffer. After 15 min of incubation, the reaction was initiated on a 160 µL aliquot by the addition of 40 µL of 4-NPA 500 µM and the enzyme activity was measured according to the procedure described above.

Series [5] deals with OVCAR3. The experiment in a line: Cell viability assay, OVCAR3. In kind it is cell-based. The note with it: OVCAR-3; OVCAR3 human ovarian cancer cells, 96 h. Here is the method: (§1) COV318, OVCAR-3 (from ATCC) and hMSC (from AB Cell-Bio) were maintained at 37 °C in a humidified atmosphere containing 5% CO2 accordingly to the supplier. Normal (1.5 × 10^4) and tumor (5 × 10^2) cells were plated in 96-well culture plates. The day after seeding, vehicle or compounds were added at different concentrations to the medium. Compound was added to the cell culture at a concentration ranging from 200 to 0.02 µM. Cell viability was measured after 96 h according to the supplier (Promega, G7571) with a Tecan F200 instrument. IC50 values were calculated from logistical dose–response curves. Averages were obtained from three independent experiments, and error bars are standard deviations (n = 3).

In series [6] the test system is CAOV3. The experiment in a line: Cell viability assay, CAOV3. Type of series: cell-based. To be noted: Caov-3; CAOV3 human ovarian cancer cells, 96 h.
Series [7] relates to noncancerous human mesenchymal stem cells (hMSC). The experiment in a line: Cell viability assay, hMSC. In kind it is cell-based. To be noted: 96 h. Here is the method:
as §1

Series [8] deals with EAE mouse model of multiple sclerosis. Also noted: method as in PMID 25298214. To be noted: cited from earlier work.

In the case of `COc1ccc(-c2ccc(-c3ccc(OC)cc3)c(/C=C3\N=C(C)OC3=O)c2)cc1` [Compound 20b, (Z)-4-{[4,4′′-Dimethoxy-(1,1′:4′,1′′-terphenyl)-2′-yl]methylene}-2-methyloxazol-5(4H)-one], the IC50 in series [1] was 348 ± 38 nM; in series [2], 36100 ± 1120 nM; in series [5] it was 41600 nM; in series [6], 23800 nM; in series [7] it was over 100000 nM. Besides, in series [1], the MAGL/FAAH selectivity is given as 104. Further, the “Change of MAGL blocking ability (IC50) with preincubation time” value in series [3] is on record as “did not show any significant increase”. In addition, in series [4], the “Inhibition mechanism in dilution assay” value was “reversible inhibition”.
Take `O=C(CCCCCc1ccc(-c2ccccc2)cc1)OCc1ccc2c(c1)OCO2` [c21]: the “Catalepsy or other motor impairments” value in series [8] (mouse) is recorded as “not accompanied by catalepsy or other motor impairments”. In addition, the “Effect on clinical progression in EAE mouse model” value in series [8] (multiple sclerosis mouse model) is “ameliorated the clinical progression”.
On to `CC1=N/C(=C\c2ccc(-c3ccccc3)c(-c3ccccc3)c2)C(=O)O1` [Compound 5, (Z)-4-[(1,1′:2′,1′′-Terphenyl)-4′-ylmethylene]-2-methyloxazol-5(4H)-one], for which, in series [1], the IC50 was found to be 837 ± 18 nM and the MAGL/FAAH selectivity was 3. In series [2], this compound registered an IC50 of 2320 ± 51 nM.
In the same order, the values of `CC1=N/C(=C\c2cc(-c3cccc(F)c3)ccc2-c2cccc(F)c2)C(=O)O1` [Compound 20e, (Z)-4-{[3,3′′-Difluoro-(1,1′:4′,1′′-terphenyl)-2′-yl]methylene}-2-methyloxazol-5(4H)-one] are 628 ± 32 nM, 19 and 11700 ± 895 nM.
As to `COc1nn(-c2ccc(NC(=O)OCc3ccccc3)c(C)c2)c(=O)o1` [CAY10499, reference compound], in series [1], the IC50 came to 144 ± 4 nM and the MAGL/FAAH selectivity stood at 0.1. Further, the IC50 in series [2] stood at 14.7 ± 0.2 nM.

The term IC50 denotes the midpoint of a concentration-inhibition curve.
